Results on one compound are retold here after US20250388551A1, “COMPOUNDS INDUCING PRODUCTION OF PROTEINS BY IMMUNE CELLS” (UNIVERSITE PARIS CITE, priority 2022, published 2025).

Experiment [1] has as its system resting mouse B cells. As to the kind of experiment: Il10 mRNA expression in B cells (quantitative RT-PCR). Format: cell-based. The settings on record: 0.25 μM. On the procedure: Resting mouse B cells were isolated from spleen by magnetic depletion of CD43^+ cells. B cells were incubated with DMSO-vehicle control or N6 (0.25 μM), as such, or in combination with CpG. mRNA was extracted at different time-points and il10/actin ratio was determined.
Resting mouse B cells were isolated from spleen by magnetic depletion of CD43^+ cells. B cells were incubated with DMSO vehicle control, or C3 or N6 at 0.25 μM for the indicated time, and Il10 mRNA induction was quantified by quantitative RT-PCR.

The test system of experiment [2] is mouse B cell subsets (CD19+, follicular, marginal zone, blood B cells). As to the kind of experiment: IL-10 expression, IL-10 secretion and plasma cell generation in B cell subsets, CpG-based culture. The settings on record: 0.25 μM, 3 days. An excerpt:
Resting mouse B cells were isolated from spleen by magnetic depletion of CD43^+ cells and total CD19^+ B cells, follicular B cells (CD19^+/CD21^low/−/CD23^high/CD1d^low) and marginal zone B cells (CD19^+/CD21^high/CD23^low/−/CD1d^hi) were purified by FACS. Total CD19^+ blood B cells were directly purified by FACS after red blood cell lysis. […] Generation of B220^low/CD138^high plasma cells was also quantified by flow cytometry. Data are presented as mean±SD. n≥3 independent experiments.

Experiment [3] concerns resting mouse B cells from spleen of IL-10.eGFP mice. Kind of experiment: High throughput flow cytometry-based phenotypic screen for IL-10 inducers. As to conditions: 10 μM, LPS, 72 hours. The class given is cell-based. On the procedure: Resting mouse B cells were isolated from spleen of IL-10.eGFP mice by magnetic depletion of CD43+ cells, and stimulated for 72 hours in 384-well plates in the presence of chemical compounds at 10 μM final. The chemical library originated from the Leibniz-Forschungsinstitut für Molekulare Pharmakologie (FMP) (Berlin, Germany). The frequency of IL-10-expressing B cells was then measured in each well by flow cytometry.

Experiment [4] concerns resting mouse B cells. Kind of experiment: IL-10 expression in TLR-, CD40- and BCR-stimulated B cells by flow cytometry. The settings on record: 0.25 μM, stimulation through TLR4, TLR7/8, TLR9, CD40, IgM, 72 hours. Format: cell-based. On the procedure:
Resting mouse B cells were isolated from spleen by magnetic depletion of CD43^+ cells and stimulated through TLR4, TLR7/8, TLR9, CD40, and IgM as indicated for 3 consecutive days. Cell culture medium was supplemented with DMSO-vehicle control, C3 or N6 at 0.25 μM. B cells from C57BL/6 mice were used to determine autofluorescence in eGFP channel and IL-10.eGFP-IL-6.tdTomato mice were used to monitor IL-10 expression by flow cytometry at 72 hours. The percentage of viable/singlets/CD19^+/IL-10^+ cells is shown. Data are presented as mean±SD. n≥3 independent experiments.
A general note: Flow cytometry measures light scatter and fluorescence of single cells or particles in a stream.

Consider `CC(=O)Nc1ccc(C(=O)Nc2ccc(-c3nc4cc(NC(=O)c5ccc(NC(C)=O)cc5)ccc4[nH]3)cc2)cc1` [Compound C3], for which, in experiment [1], the “Il10 transcription in unstimulated B cells” value was “Increase Il10 Transcription”. In addition, in experiment [2], the “differentiation of B cells into plasma cells (B220low/CD138high)” value is reported as “increase”. Further, the “amount of IL-10 produced by stimulated B cells” value in experiment [2] (cell-free supernatants) was “increase”. Further, in experiment [2] (flow cytometry), the “proportion of activated B cells expressing IL-10” value is given as “increase”. In addition, the “IL-10 expression in stimulated B cells” value in experiment [3] is “markedly increases IL-10 expression”. The “IL-10 expression in B cells (percentage of IL-10+ cells)” value in experiment [4] is “increase IL-10 expression in B cells across a broad range of stimulation protocols”.
